Results as given in US20210292807A1, “METHOD FOR TESTING ANTIMICROBIAL SUSCEPTIBILITY” (priority 2017, published 2021).
Where “and” joins values, the source holds several entries; their conditions need not be identical. Equal entries are not always repeated.

System: Klebsiella isolates
Test: Broth microdilution MIC (MICBMD) of Klebsiella isolates
Format: cell-based, Klebsiella pneumoniae, Klebsiella oxytoca
Experimental: An aliquot of bacterial suspension was added to 50 mL centrifuge tubes (Corning, N.Y.) containing 9 mL of pre-warmed (37° C.) filtered MHB to produce a final density of 5×10^5-1×10^6 bacteria per mL. This suspension was incubated at 37° C. with shaking at 100 RPM for 30 minutes to obtain an actively dividing culture. An aliquot of antibiotic working solution from the previously described dilution series (appropriate to the concentration tested) was then added to each tube before a further 30-minute incubation with shaking, during which time a microbroth dilution (MBD) plate was prepared for overnight incubation at 37° C. as previously described in Clinical and Laboratory Standards Institute (2015) Performance Standards for Antimicrobial Susceptibility Testing: Informational Supplement. CLSI document M100-S25. Clinical and Laboratory Standards Institute, 950, West Valley Road, Suite 2500, Wayne, Pa., 19087, USA.
FIG. 2 outlines the work flow as exemplified herein. In brief, an isolate was retrieved from cryopreservation, plated onto blood agar to ensure purity, and inoculated into trypticase soy broth (TSB, described above) overnight to simulate biological fluids. A 1 mL aliquot of this overnight suspension was inoculated into Mueller-Hinton broth (MHB) [comprising about 300.0 g beef extract (dehydrated infusion from), about 17.5 g casein hydrolysate, about 1.5 g starch, reconstituted in about 1 L of water, pH 7.3±0.1 as measured and kept at 25° C.] and incubated at 37° C. to ensure bacteria were actively dividing. One aliquot was subjected to traditional microbroth dilution (MBD) susceptibility testing.

[1] = K. pneumoniae isolate 18397, biological replicates
[2] = K. pneumoniae isolate 43292, biological replicates
[3] = K. pneumoniae isolate 43358, biological replicates
[4] = K. pneumoniae isolate 44271, biological replicates
[5] = K. pneumoniae isolate ATCC 700603, biological replicates
[6] = K. pneumoniae isolate ATCC BAA1705, biological replicates
[7] = K. pneumoniae isolate K1, biological replicates
[8] = K. pneumoniae isolate K14, biological replicates
[9] = isolate 3000770, England, NDM-1
[10] = isolate 3040820, England, pAmpC
[11] = isolate ATCC BAA 1705, USA, KPC
[12] = isolate K16, Australia, IMP - 4
[13] = isolate K23, Australia, IMP - 4
[14] = isolate KS1, Sri Lanka, OXA-181
[15] = isolate KS17, Sri Lanka, OXA-181

SMILES: C[C@@H](O)[C@H]1C(=O)N2C(C(=O)O)=C(S[C@@H]3CN[C@H](C(=O)N(C)C)C3)[C@H](C)[C@H]12 [meropenem]
- MICBMD (K. pneumoniae ATCC 700603 (carbapenem susceptible control), limited clinical screen concentrations): ≤0.25
- MICBMD (K. pneumoniae ATCC BAA1705 (carbapenem resistant control), limited clinical screen concentrations): >16
- BMD S/NS [1]: S (S: MIC ≤2 mg/L)
- MICBMD [1]: ≤0.25 mg/L
- BMD S/NS [2]: S (S: MIC ≤2 mg/L)
- MICBMD [2]: ≤0.25 mg/L
- BMD S/NS [3]: S (S: MIC ≤2 mg/L)
- MICBMD [3]: ≤0.25 mg/L
- BMD S/NS [4]: S (S: MIC ≤2 mg/L)
- MICBMD [4]: 0.5 mg/L
- BMD S/NS [5]: S (S: MIC ≤2 mg/L)
- MICBMD [5]: ≤0.25 mg/L
- BMD S/NS [6]: NS (NS: MIC >2 mg/L)
- MICBMD [6]: 16 mg/L
- BMD S/NS [7]: NS (NS: MIC >2 mg/L)
- MICBMD [7]: 32 mg/L (2×) and 64 mg/L
- BMD S/NS [8]: NS (NS: MIC >2 mg/L)
- MICBMD [8]: 256 mg/L
- MICBMD (K. pneumoniae isolate KS1, biological replicates): 4 mg/L and 2 mg/L (2×)
- MICBMD (K. pneumoniae isolate KS11, biological replicates): 2 mg/L and 4 mg/L (2×)
- MBD S/NS (isolate 194, Sweden, VIM): NS (NS = MIC >2 mg/L)
- MICBMD (isolate 194, Sweden, VIM): 64 mg/L
- MBD S/NS (isolate 374, Sweden, VIM): NS (NS = MIC >2 mg/L)
- MICBMD (isolate 374, Sweden, VIM): 8 mg/L
- MBD S/NS (isolate 3354, Australia): S (S = MIC ≤2 mg/L)
- MICBMD (isolate 3354, Australia): ≤0.25 mg/L
- MBD S/NS (isolate 10924, Sweden, KPC): S (S = MIC ≤2 mg/L)
- MICBMD (isolate 10924, Sweden, KPC): ≤0.25 mg/L
- MBD S/NS (isolate 18397, Australia): S (S = MIC ≤2 mg/L)
- MICBMD (isolate 18397, Australia): ≤0.25 mg/L
- MBD S/NS (isolate 43288, Australia): S (S = MIC ≤2 mg/L)
- MICBMD (isolate 43288, Australia): ≤0.25 mg/L
- MBD S/NS (isolate 43292, Australia): S (S = MIC ≤2 mg/L)
- MICBMD (isolate 43292, Australia): ≤0.25 mg/L
- MBD S/NS (isolate 43358, Australia): S (S = MIC ≤2 mg/L)
- MICBMD (isolate 43358, Australia): ≤0.25 mg/L
- MBD S/NS (isolate 43854, Australia): S (S = MIC ≤2 mg/L)
- MICBMD (isolate 43854, Australia): ≤0.25 mg/L
- MBD S/NS (isolate 44271, Australia): S (S = MIC ≤2 mg/L)
- MICBMD (isolate 44271, Australia): 0.5 mg/L
- MBD S/NS (isolate 51575, Sweden, ESBL): S (S = MIC ≤2 mg/L)
- MICBMD (isolate 51575, Sweden, ESBL): ≤0.25 mg/L
- MBD S/NS (isolate 70708, Sweden, KPC): NS (NS = MIC >2 mg/L)
- MICBMD (isolate 70708, Sweden, KPC): 32 mg/L
- MBD S/NS (isolate 71076, Sweden, KPC): NS (NS = MIC >2 mg/L)
- MICBMD (isolate 71076, Sweden, KPC): 32 mg/L
- MBD S/NS (isolate 200822, Sweden, KPC): NS (NS = MIC >2 mg/L)
- MICBMD (isolate 200822, Sweden, KPC): 16 mg/L
- MBD S/NS (isolate 270902, England): S (S = MIC ≤2 mg/L)
- MICBMD (isolate 270902, England): 0.5 mg/L
- MBD S/NS (isolate 500638, Sweden, pAmpC): NS (NS = MIC >2 mg/L)
- MICBMD (isolate 500638, Sweden, pAmpC): 4 mg/L
- MBD S/NS (isolate 515870, Sweden, ESBL): S (S = MIC ≤2 mg/L)
- MICBMD (isolate 515870, Sweden, ESBL): ≤0.25 mg/L
- MBD S/NS (isolate 2440606, England): S (S = MIC ≤2 mg/L)
- MICBMD (isolate 2440606, England): ≤0.25 mg/L
- MBD S/NS (isolate 2880622, England): S (S = MIC ≤2 mg/L)
- MICBMD (isolate 2880622, England): ≤0.25 mg/L
- MBD S/NS (isolate 2880654, England, KPC): NS (NS = MIC >2 mg/L)
- MICBMD (isolate 2880654, England, KPC): 64 mg/L
- MBD S/NS (isolate 2890369, England): S (S = MIC ≤2 mg/L)
- MICBMD (isolate 2890369, England): ≤0.25 mg/L
- MBD S/NS (isolate 2980639, England): S (S = MIC ≤2 mg/L)
- MICBMD (isolate 2980639, England): ≤0.25 mg/L
- MBD S/NS [9]: NS (NS = MIC >2 mg/L)
- MICBMD [9]: 32 mg/L
- MBD S/NS [10]: S (S = MIC ≤2 mg/L)
- MICBMD [10]: 0.5 mg/L
- MBD S/NS (isolate 3080800, England, KPC): NS (NS = MIC >2 mg/L)
- MICBMD (isolate 3080800, England, KPC): 256 mg/L
- MBD S/NS (isolate A1, Norway): S (S = MIC ≤2 mg/L)
- MICBMD (isolate A1, Norway): ≤0.25 mg/L
- MBD S/NS (isolate A2, Norway): S (S = MIC ≤2 mg/L)
- MICBMD (isolate A2, Norway): ≤0.25 mg/L
- MBD S/NS (isolate A3, Norway): S (S = MIC ≤2 mg/L)
- MICBMD (isolate A3, Norway): ≤0.25 mg/L
- MBD S/NS (isolate A4, Norway): S (S = MIC ≤2 mg/L)
- MICBMD (isolate A4, Norway): ≤0.25 mg/L
- MBD S/NS (isolate A7, Norway): S (S = MIC ≤2 mg/L)
- MICBMD (isolate A7, Norway): ≤0.25 mg/L
- MBD S/NS (isolate A13, Norway): S (S = MIC ≤2 mg/L)
- MICBMD (isolate A13, Norway): ≤0.25 mg/L
- MBD S/NS (isolate A15, Norway): S (S = MIC ≤2 mg/L)
- MICBMD (isolate A15, Norway): ≤0.25 mg/L
- MBD S/NS (isolate A16, Norway): S (S = MIC ≤2 mg/L)
- MICBMD (isolate A16, Norway): ≤0.25 mg/L
- MBD S/NS (isolate A20, Norway, NDM-1): NS (NS = MIC >2 mg/L)
- MICBMD (isolate A20, Norway, NDM-1): 16 mg/L
- MBD S/NS (isolate ATCC 700603, USA): S (S = MIC ≤2 mg/L)
- MICBMD (isolate ATCC 700603, USA): ≤0.25 mg/L
- MBD S/NS [11]: NS (NS = MIC >2 mg/L)
- MICBMD [11]: 16 mg/L
- MBD S/NS (isolate ATCC BAA 1706, USA): S (S = MIC ≤2 mg/L)
- MICBMD (isolate ATCC BAA 1706, USA): ≤0.25 mg/L
- MBD S/NS (isolate K1, Australia, OXA-181): NS (NS = MIC >2 mg/L)
- MICBMD (isolate K1, Australia, OXA-181): 64 mg/L
- MBD S/NS (isolate K2, Australia, OXA-181): NS (NS = MIC >2 mg/L)
- MICBMD (isolate K2, Australia, OXA-181): 32 mg/L
- MBD S/NS (isolate K8, Australia, NDM-1): NS (NS = MIC >2 mg/L)
- MICBMD (isolate K8, Australia, NDM-1): >256 mg/L
- MBD S/NS (isolate K14, Australia, KPC): NS (NS = MIC >2 mg/L)
- MICBMD (isolate K14, Australia, KPC): >256 mg/L
- MBD S/NS [12]: NS (NS = MIC >2 mg/L)
- MICBMD [12]: 16 mg/L
- MBD S/NS [13]: S (S = MIC ≤2 mg/L)
- MICBMD [13]: 2 mg/L
- MBD S/NS [14]: NS (NS = MIC >2 mg/L)
- MICBMD [14]: 4 mg/L
- MBD S/NS (isolate KS2, Sri Lanka, OXA-181): NS (NS = MIC >2 mg/L)
- MBD S/NS [15]: NS (NS = MIC >2 mg/L)
- MICBMD [15]: 64 mg/L
- MBD S/NS (isolate KS23, Sri Lanka, OXA-181): NS (NS = MIC >2 mg/L)
- MBD S/NS (isolate N17, Sweden, NDM-1): NS (NS = MIC >2 mg/L)
- MICBMD (isolate N17, Sweden, NDM-1): 32 mg/L
